Species: Rattus norvegicus
Experiment: Open TG-GATES - Regimen: Daily Repeat
Type: toxicity, organism-based, Sprague-Dawley
Set-up: regimen Daily Repeat, gender Male, age 6 weeks
Settings: in vivo, po, 0 mg/kg, […], route gavage, dose level Control; for KIDNEY_L / KIDNEY_R / KIDNEY_TOTAL: tissue Kidney; for LIVER: tissue Liver; for A/G / ALP / ALT / AST / BUN / CRE / Ca / Cl / DBIL / GLC / IP / K / LDH / Na / PL / RALB / TBIL / TC / TG / TP / gamma-GTP: tissue Plasma

CCOC(=O)[C@H](CCc1ccccc1)N[C@@H](C)C(=O)N1CCC[C@H]1C(=O)O
Lym (tissue Blood, time 28 day): 80%
MCH (tissue Blood, time 28 day): 19.3 pg
MCHC (tissue Blood, time 28 day): 33%
MCV (tissue Blood, time 28 day): 58.3 fL
Mono (tissue Blood, time 28 day): 6%
Neu (tissue Blood, time 28 day): 12.6%
PT (tissue Blood, time 28 day): 11.6 s
Plat (tissue Blood, time 28 day): 107.8 x10_4/uL
RBC (tissue Blood, time 28 day): 797.4 x10_4/ul
Ret (tissue Blood, time 28 day): 3.1%
WBC (tissue Blood, time 28 day): 125.5 x10_2/uL
KIDNEY_L (time 7 day): 1.2 g
KIDNEY_R (time 7 day): 1.2 g
KIDNEY_TOTAL (time 7 day): 2.4 g
KIDNEY_L (time 14 day): 1.3 g
KIDNEY_R (time 14 day): 1.3 g
KIDNEY_TOTAL (time 14 day): 2.6 g
KIDNEY_L (time 28 day): 1.4 g
KIDNEY_R (time 28 day): 1.4 g
KIDNEY_TOTAL (time 28 day): 2.8 g
LIVER (time 7 day): 14 g
LIVER (time 14 day): 15.8 g
LIVER (time 28 day): 16.1 g
A/G (time 7 day): 2.1
ALP (time 7 day): 778.4 IU/L
ALT (time 7 day): 37.8 IU/L
AST (time 7 day): 62 IU/L
BUN (time 7 day): 18.2 mg/dL
CRE (time 7 day): 0.5 mg/dL
Ca (time 7 day): 10.7 mg/dL
Cl (time 7 day): 106 meq/L
DBIL (time 7 day): 0.002 mg/dL
GLC (time 7 day): 207 mg/dL
IP (time 7 day): 8.6 mg/dL
K (time 7 day): 5 meq/L
LDH (time 7 day): 89.2 IU/L
Na (time 7 day): 140.2 meq/L
PL (time 7 day): 157.4 mg/dL
RALB (time 7 day): 4 g/dL
TBIL (time 7 day): 0.4 mg/dL
TC (time 7 day): 78.2 mg/dL
TG (time 7 day): 130.2 mg/dL
TP (time 7 day): 5.9 g/dL
gamma-GTP (time 7 day): 1.6 IU/L
A/G (time 14 day): 1.6
ALP (time 14 day): 684 IU/L
ALT (time 14 day): 31 IU/L
AST (time 14 day): 58.2 IU/L
BUN (time 14 day): 19.6 mg/dL
CRE (time 14 day): 0.6 mg/dL
Ca (time 14 day): 10.9 mg/dL
Cl (time 14 day): 106.4 meq/L
DBIL (time 14 day): 0 mg/dL
GLC (time 14 day): 209.6 mg/dL
IP (time 14 day): 8 mg/dL
K (time 14 day): 4.4 meq/L
LDH (time 14 day): 105.2 IU/L
Na (time 14 day): 140 meq/L
PL (time 14 day): 162.2 mg/dL
RALB (time 14 day): 3.9 g/dL
TBIL (time 14 day): 0.3 mg/dL
TC (time 14 day): 77 mg/dL
TG (time 14 day): 172 mg/dL
TP (time 14 day): 6.2 g/dL
gamma-GTP (time 14 day): 1.4 IU/L
A/G (time 28 day): 1.9
ALP (time 28 day): 643.2 IU/L
ALT (time 28 day): 29.2 IU/L
AST (time 28 day): 54.2 IU/L
BUN (time 28 day): 19.2 mg/dL
CRE (time 28 day): 0.7 mg/dL
Ca (time 28 day): 10.7 mg/dL
Cl (time 28 day): 107.2 meq/L
DBIL (time 28 day): 0.036 mg/dL
GLC (time 28 day): 202.6 mg/dL
IP (time 28 day): 7 mg/dL
K (time 28 day): 4.5 meq/L
LDH (time 28 day): 61 IU/L
Na (time 28 day): 140.2 meq/L
PL (time 28 day): 145 mg/dL
RALB (time 28 day): 4 g/dL
TBIL (time 28 day): 0.3 mg/dL
TC (time 28 day): 66.4 mg/dL
TG (time 28 day): 128.2 mg/dL
TP (time 28 day): 6.2 g/dL
gamma-GTP (time 28 day): 1.4 IU/L

From ChEMBL document CHEMBL3885861, “Open TG-GATES”
